One block for each compound: values may come before it.
Biological target: T1, SHP2 protein (Homo sapiens, UniProt Q06124)
T1 sequence (Q06124 1-593): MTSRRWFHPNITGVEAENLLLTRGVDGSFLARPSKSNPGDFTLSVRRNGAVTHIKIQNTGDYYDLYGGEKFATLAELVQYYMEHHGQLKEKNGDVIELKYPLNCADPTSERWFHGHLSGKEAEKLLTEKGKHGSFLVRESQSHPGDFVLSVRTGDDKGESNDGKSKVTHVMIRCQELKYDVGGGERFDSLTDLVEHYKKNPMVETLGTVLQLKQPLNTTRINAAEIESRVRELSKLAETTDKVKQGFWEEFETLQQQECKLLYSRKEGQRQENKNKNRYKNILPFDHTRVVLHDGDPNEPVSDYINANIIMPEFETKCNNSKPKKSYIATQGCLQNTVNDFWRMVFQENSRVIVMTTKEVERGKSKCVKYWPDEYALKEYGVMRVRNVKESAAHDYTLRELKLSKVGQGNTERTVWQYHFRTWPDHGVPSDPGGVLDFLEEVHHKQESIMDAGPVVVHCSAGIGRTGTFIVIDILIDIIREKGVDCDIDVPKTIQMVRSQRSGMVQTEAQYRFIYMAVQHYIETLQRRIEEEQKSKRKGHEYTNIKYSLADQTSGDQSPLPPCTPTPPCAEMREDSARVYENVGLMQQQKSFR
Assay: Measurement of SHP2 protein degradation in NCI-H358 cells (western blotting)
Format: cell-based
Set-up: endogenous in cells; host or cells: NCI-H358
Settings: harvested after 24 hours
Protocol: H358 cells were treated with the synthesized Example compounds, and the amount of SHP2 protein present in the cells was measured using western blotting detection. The protocol for the experiment using H358 cells is as follows.
[Culture]H358 cells were resuspended in RPMI1640 with 25 mM HEPES (Hyclone, SH30255.01), 10% FBS (Hyclone, SV30207.02), 1% Penicillin-streptomycin (Welgene, LS 202-02) media, seeded at 3×10^5/mL in 12-well plates (1 mL each), and cultured for 24 hours.
[Compound treatment] Before compound treatment, the media was changed to 1 mL media, and then the 12-well plate was treated as follows. The 10 mM stock dissolved in DMSO was serially diluted 1/100 or 1/10 with the media, and the compound was treated to the cells at a final concentration of 0.001, 0.01, and 0.1 μM, and harvested after 24 hours. For the negative control group, DMSO diluted 1/1000 in the media was added (1 μL DMSO+999 μL media).
[Harvest]24 hours after compound treatment, each well was scraped with a cell lifter (SPL, 90040), pipetted with a 1 mL pipette, collected in a 1.5 mL microtube, and centrifuged (500 g, 5 min, 4° C.). The supernatant was removed, washed with PBS, and centrifuged again (500 g, 5 min, 4° C.). Afterwards, the supernatant was removed to prepare a pellet.
[Cell lysis and sample preparation] Lysis buffer was prepared as follows. RIPA buffer (Biosesang, RC2038-050-00)+0.5 mM PMSF (SIGMA, P7626)+1× Protease/Phosphatase Inhibitor (Cell signaling, 5872S) were added at 30 μL per tube, vortexed, and incubated on ice for 30 minutes. Afterwards, sonication was performed (10 sec pulse, 30 sec rest, 5 cycles, 70% amplification) and centrifugation was performed (15,000 g, 15 min, 4° C.), and only the supernatant was transferred to a microtube. A 96-well plate was diluted to 1/4 with 7.5 μL of RIPA buffer and 2.5 μL of sample, and 200 μL each was added after mixing A and B of the BCA Protein Assay Kit (iNtRON, 21071) in a ratio of 50:1. The plate was incubated at 37° C. for 30 minutes and left at room temperature for 10 minutes. After shaking for 10 seconds with a SYNERGY H1 microplate reader from BioTek, the absorbance was measured at 562 nm. The protein was quantified using the measured value to make a sample, which was then incubated at 70° C. for 10 minutes. The sample buffer used here was a mixture of NuPAGE or Bolt 4× sample buffer (Invitrogen) and each 10× sample reducing agent depending on the gel to be used, and RIPA buffer was used for protein dilution.
[Western blotting detection] Equal amounts of samples were loaded onto NuPAGE or Bolt Bis-tris 4-12% gradient gel and run (200 V, 35 min). This was transferred to […] NC membrane using Trans-blot Turbo (BIO-RAD) (1.3 A constant, 25 V limit, 15 min), and blocked with 5% skim milk/0.2% TBST for 45 min at room temperature. Anti-SHPTP2 Mouse (1:1,000 in 5% skim milk/0.2% TBST, size: 70 kDa, Santa cruz sc-7384) and Anti-GAPDH Rabbit (1:2,000 in 5% skim milk or 5% BSA/0.2% TBST, size: 37 kDa, CST #2118) were added and incubated overnight at 4° C. After washing three times with 0.2% TBST washing buffer for 5 minutes each, secondary antibodies Anti-Mouse IgG (1:5,000 in 5% skim milk/0.2% TBST, CST) and IRDye® 680RD Goat anti-Rabbit IgG Secondary Antibody (1:10,000 in 5% skim milk/0.2% TBST, LI-COR 926-68071) were added, and incubated on a rocker at room temperature for 45 minutes. The resultants were washed five times with 0.2% TBST washing buffer for 5 minutes each, and detected using LI-COR's Odyssey. GAPDH was detected with a 700 nm channel, and SHPTP2 was detected using SuperSignal West Pico PLUS Chemiluminescent Substrate.

SMILES: CC(=O)N[C@H](C(=O)N1C[C@H](O)C[C@H]1C(=O)NCc1ccc(-c2scnc2C)cc1O[C@H]1CC[C@H](C(=O)N2CCC(Nc3nccc(Sc4cnc(N5CCC(C)(CN)CC5)c(CO)n4)c3Cl)CC2)CC1)C(C)(C)C [Example 45, (2S,4R)-1-((S)-2-acetamido-3,3-dimethylbutanoyl)-N-(2-(((1r,4S)-4-(4-((4-((5-(4-(aminomethyl)-4-methylpiperidin-1-yl)-6-(hydroxymethyl)pyrazin-2-yl)thio)-3-chloropyridin-2-yl)amino)piperidine-1-carbonyl)cyclohexyl)oxy)-4-(4-methylthiazol-5-yl)benzyl)-4-hydroxypyrrolidine-2-carboxamide]
SHP2% degradation (0.01 μM): 97.0%
SHP2% degradation (0.1 μM): 99.4%

SMILES: CC(=O)N[C@H](C(=O)N1C[C@H](O)C[C@H]1C(=O)NCc1ccc(-c2scnc2C)cc1O[C@H]1CC[C@H](C(=O)N2CCC(c3cccc(Sc4cnc(N5CCC(C)(CN)CC5)cn4)c3Cl)CC2)CC1)C(C)(C)C [Example 46, (2S,4R)-1-((S)-2-acetamido-3,3-dimethylbutanoyl)-N-(2-(((1r,4S)-4-(4-(3-((5-(4-(aminomethyl)-4-methylpiperidin-1-yl)pyrazin-2-yl)thio)-2-chlorophenyl)piperidine-1-carbonyl)cyclohexyl)oxy)-4-(4-methylthiazol-5-yl)benzyl)-4-hydroxypyrrolidine-2-carboxamide]
SHP2% degradation (0.01 μM): 33.8%
SHP2% degradation (0.1 μM): 93.2%

SMILES: CC(=O)N[C@H](C(=O)N1C[C@H](O)C[C@H]1C(=O)NCc1ccc(-c2scnc2C)cc1O[C@H]1CC[C@H](C(=O)N2CCC(c3nccc(Sc4cnc(N5CCC(C)(CN)CC5)cn4)c3Cl)CC2)CC1)C(C)(C)C [Example 47, (2S,4R)-1-((S)-2-acetamido-3,3-dimethylbutanoyl)-N-(2-(((1r,4S)-4-(4-(4-((5-(4-(aminomethyl)-4-methylpiperidin-1-yl)pyrazin-2-yl)thio)-3-chloropyridin-2-yl)piperidine-1-carbonyl)cyclohexyl)oxy)-4-(4-methylthiazol-5-yl)benzyl)-4-hydroxypyrrolidine-2-carboxamide]
SHP2% degradation (0.01 μM): −34.6%
SHP2% degradation (0.1 μM): 50.6%

SMILES: CC(=O)N[C@H](C(=O)N1C[C@H](O)C[C@H]1C(=O)N[C@@H](C)c1ccc(-c2scnc2C)cc1O[C@H]1CC[C@H](C(=O)N2CC(Nc3cccc(Sc4cnc(N5CCC(C)(CN)CC5)cn4)c3Cl)C2)CC1)C(C)(C)C [Example 48, (2S,4R)-1-((S)-2-acetamido-3,3-dimethylbutanoyl)-N—((S)-1-(2-(((1R,4S)-4-(3-((3-((5-(4-(aminomethyl)-4-methylpiperidin-1-yl)pyrazin-2-yl)thio)-2-chlorophenyl)amino)azetidine-1-carbonyl)cyclohexyl)oxy)-4-(4-methylthiazol-5-yl)phenyl)ethyl)-4-hydroxypyrrolidine-2-carboxamide]
SHP2% degradation (0.01 μM): 88.8%
SHP2% degradation (0.1 μM): 98.3%

SMILES: CC(=O)N[C@H](C(=O)N1C[C@H](O)C[C@H]1C(=O)N[C@@H](C)c1ccc(-c2scnc2C)cc1O[C@H]1CC[C@H](C(=O)N2CC(Nc3nccc(Sc4cnc(N5CCC(C)(CN)CC5)cn4)c3Cl)C2)CC1)C(C)(C)C [Example 49, (2S,4R)-1-((S)-2-acetamido-3,3-dimethylbutanoyl)-N—((S)-1-(2-(((1R,4S)-4-(3-((4-((5-(4-(aminomethyl)-4-methylpiperidin-1-yl)pyrazin-2-yl)thio)-3-chloropyridin-2-yl)amino)azetidine-1-carbonyl)cyclohexyl)oxy)-4-(4-methylthiazol-5-yl)phenyl)ethyl)-4-hydroxypyrrolidine-2-carboxamide]
SHP2% degradation (0.01 μM): 87.1%
SHP2% degradation (0.1 μM): 99.4%

Now from value to compound:

SHP2% degradation (0.01 μM): 53.0%
SHP2% degradation (0.1 μM): 99.0%
SMILES: Cc1ncsc1-c1ccc(CNC(=O)[C@@H]2C[C@@H](O)CN2C(=O)[C@@H](NC(=O)C2(F)CC2)C(C)(C)C)c(OC2CCN(C(=O)C3CN(c4nccc(Sc5cnc(N6CCC(C)(CN)CC6)cn5)c4Cl)C3)CC2)c1 [Example 63, (2S,4R)—N-(2-((1-(1-(4-((5-(4-(aminomethyl)-4-methylpiperidin-1-yl)pyrazin-2-yl)thio)-3-chloropyridin-2-yl)azetidine-3-carbonyl)piperidin-4-yl)oxy)-4-(4-methylthiazol-5-yl)benzyl)-1-((S)-2-(1-fluorocyclopropane-1-carboxamido)-3,3-dimethylbutanoyl)-4-hydroxypyrrolidine-2-carboxamide]

SHP2% degradation (0.01 μM): 87.9%
SHP2% degradation (0.1 μM): 99.8%
SMILES: Cc1ncsc1-c1ccc(CNC(=O)[C@@H]2C[C@@H](O)CN2C(=O)[C@@H](NC(=O)C2(F)CC2)C(C)(C)C)c(OC2CCN(C(=O)CC3CN(c4nccc(Sc5cnc(N6CCC(C)(CN)CC6)cn5)c4Cl)C3)CC2)c1 [Example 64, (2S,4R)—N-(2-((1-(2-(1-(4-((5-(4-(aminomethyl)-4-methylpiperidin-1-yl)pyrazin-2-yl)thio)-3-chloropyridin-2-yl)azetidin-3-yl)acetyl)piperidin-4-yl)oxy)-4-(4-methylthiazol-5-yl)benzyl)-1-((S)-2-(1-fluorocyclopropane-1-carboxamido)-3,3-dimethylbutanoyl)-4-hydroxypyrrolidine-2-carboxamide]

SHP2% degradation (0.01 μM): 94.5%
SHP2% degradation (0.1 μM): 96.9%
SMILES: Cc1ncsc1-c1ccc(CNC(=O)[C@@H]2C[C@@H](O)CN2C(=O)[C@@H](NC(=O)C2(F)CC2)C(C)(C)C)c(OC2CCN(C(=O)C3CCN(c4nccc(Sc5cnc(N6CCC7(CC6)CO[C@@H](C)[C@H]7N)cn5)c4Cl)CC3)CC2)c1 [Example 67, (2S,4R)—N-(2-((1-(1-(4-((5-((3S,4S)-4-amino-3-methyl-2-oxa-8-azaspiro[4.5]decan-8-yl)pyrazin-2-yl)thio)-3-chloropyridin-2-yl)piperidine-4-carbonyl)piperidin-4-yl)oxy)-4-(4-methylthiazol-5-yl)benzyl)-1-((S)-2-(1-fluorocyclopropane-1-carboxamido)-3,3-dimethylbutanoyl)-4-hydroxypyrrolidine-2-carboxamide]

SHP2% degradation (0.01 μM): 90.0%
SHP2% degradation (0.1 μM): 98.7%
SMILES: CC(=O)N[C@H](C(=O)N1C[C@H](O)C[C@H]1C(=O)NCc1ccc(-c2scnc2C)cc1OC1CCN(C(=O)C2CCN(c3nccc(Sc4cnc(N5CCC(C)(N)CC5)cn4)c3Cl)CC2)CC1)C(C)(C)C [Example 76, (2S,4R)-1-((S)-2-acetamido-3,3-dimethylbutanoyl)-N-(2-((1-(1-(4-((5-(4-amino-4-methylpiperidin-1-yl)pyrazin-2-yl)thio)-3-chloropyridin-2-yl)piperidine-4-carbonyl)piperidin-4-yl)oxy)-4-(4-methylthiazol-5-yl)benzyl)-4-hydroxypyrrolidine-2-carboxamide]

Reference: patent US20260144788A1, “COMPOUND FOR SHP2 PROTEIN DEGRADATION AND MEDICAL USES THEREOF” (UBIX THERAPEUTICS, INC., priority 2022, published 2026)
